# In PMC10096842, “Identification of Flavone Derivative Displaying a 4′-Aminophenoxy Moiety as Potential Selective Anticancer Agent in NSCLC Tumor Cells” (Molecules, 2023):
# Columns and labels:
# Format in all cases: cell-based, human
# HDF cells = assay: Cell cycle analysis (PI, flow cytometry), HDF; conditions: 1.5 and 3 µM, 24 h
# Protocol: (§1) Cell cycle analyses were performed by using a Guava easyCyte flow cytometer (Merk-Millipore, MA, USA) and the DNA content was determined by propidium iodide (PI) method as previously described. Briefly, A549, H1975, and HDF were treated with APF-1 at 1.5 and 3 µM concentrations for 24 h. Cells were harvested, washed twice with cold PBS, and fixed with 70% ice-cold ethanol and kept at […] for 2 h. The fixed cells were centrifugated at 4 °C and suspended in a master mix solution containing PBS, PI (40 µg/mL), and RNase (100 µg/mL) for 30 min at 37 °C in the dark. Samples were run through the Guava easyCyte flow cytometer set to internal cell cycle analysis protocol and 5000 cells per sample were measured. The percentage of cell cycle phases (G0/G1, S, and G2/M) was quantified using MultiCycle AV Cell Cycle in FCS Express 7 software (DeNovo Software, Pasadena, CA, USA). The experiment was performed three times in triplicate.
# H1975 cells [1] = assay: Annexin V-FITC/PI apoptosis flow cytometry, H1975
# Protocol: Apoptosis was analyzed by flow cytometry using an Annexin V-FITC apoptosis detection kit (Biolegend, San Diego, CA, USA), according to the manufacturer’s instructions. A549, H1975, and HDF cells were treated with […] concentrations of APF-1 (1.5 and 3 µM). […] Briefly, control and treated cells were trypsinized, washed twice with ice-cold PBS, and resuspended in 1X Annexin binding buffer at a final concentration of 1.0 × 10^6 cell/mL. A total of 5 µL Annexin V-FITC and 10 µL Propidium Iodide (PI) were added to the cell suspension and the mixture was incubated for 15 min at rt in the dark. Samples were analyzed using the Guava EasyCyte flow cytometer (Merk-Millipore, Louis Missouri, USA). A total of 5000 events were acquired for each sample. Annexin V-FITC was detected as a green fluorescence (λex = 488 nm; λem = 516 nm) and PI was detected as a red fluorescence (λex = 535 nm; λem = 617 nm). Early apoptosis is defined by Annexin V+/PI− staining, late apoptosis is defined by Annexin V+/PI+ staining, and necrosis is defined by Annexin V−/PI+ staining.
# A549 NSCLC cells = assay: MTT cell viability assay, A549; conditions: for IC50: A549, 72 h, MTT
# Protocol: (§2) The human non-small cell lung cancer (NSCLC) and Human Dermal Fibroblasts (HDF) cell lines were all obtained from the American Type Culture Collection (ATCC). The H1975 (CRL-5908™) cell line was grown in RPMI 1640 medium (ECB2000) while the A549 (CCL-185™) and HDF were grown in complete DMEM medium (ECM0095) All cultures were supplemented with 10% fetal bovine serum (FBS), 2 mM L-glutamine, 100 U/mL penicillin, and 100 µg/mL streptomycin,. All cell lines were routinely maintained in 75 cm^2 flasks in a cell incubator at 37 °C, 5% CO2, and 95% relative humidity. The cell cultures were detached by trypsinization with 0.5% trypsin in PBS containing 0.025% EDTA. All cell culture reagents were supplied by Euroclone (Milan, Italy).
# (§3) The number of metabolically active cells, and thus cell viability, was assessed by a 3-(4,5-dimethylthiazol-2-yl)-2,5-diphenyltetrazolium bromide (MTT) assay as previously described. The NSCLC cell lines (A549 and H1975) and HDF were seeded in 96-well plates to reach 50% confluence at 24 h; then, the medium was removed and replaced with 0.2 mL of fresh culture medium containing increasing compound concentrations (0–160 µM). After 72 h, the medium from each well was removed and replaced with fresh medium supplemented with MTT at a final concentration of 200 µg/mL. After incubation for 4 h at 37 °C, 0.2 mL of DMSO was added to each well followed by multiwell shaking for 4 min. The absorbance was read on a multiwell scanning microplate reader (BioTek Synergy HT MicroPlate Reader Spectrophotometer, BioTek Instruments Inc., Winooski, VT, USA) at 570 nm using the extraction buffer as a blank. The optical density in the control group (untreated cells) was considered as 100% viability. The relative cell viability (%) was calculated as (OD570 of treated samples/OD570 of untreated samples) × 100. Dose-dependent curves were therefore generated for the cytotoxic studies. The 50% inhibiting concentration (IC50) was determined by non-linear regression analysis with a three-parameter fit by utilizing SigmaPlot 12.0 Software, USA, Systat Software, Inc. SigmaPlot for Windows. Each experiment was performed at least five times in triplicate.
# H1975 NSCLC cells = assay: MTT cell viability assay, H1975; conditions: for IC50: H1975, 72 h, MTT
# Protocol: as §2, §3
# H1975 cells [2] = assay: Cell cycle analysis (PI, flow cytometry), H1975; conditions: H1975, 3 µM, 24 h
# Protocol: as §1
# [3] = tested on: p21^waf1/cip1 protein level in H1975 cells; assay: Western blot of p21 expression, H1975; conditions: 24 h
# Protocol: Analysis of cell extracts (20 µg total proteins) was performed using SDS-PAGE 12% (Bio-Rad Laboratories, Hercules, CA, USA). Electrophoresis was carried out under reducing conditions, where uniformly negatively charged proteins move according to their mass. The proteins were then transferred to a PVDF membrane using the Trans-Blot Turbo instrument (Bio-Rad Laboratories, USA), after which the membrane was blocked with Every Blot Blocking Buffer (Bio-Rad Laboratories, USA). P21 protein levels were analyzed by Western blotting using a specific rabbit monoclonal primary antibody that specifically recognizes p21 protein (ab109199, Cambridge, MA, USA), and a secondary antibody anti-rabbit HRP (TA130023, OriGene Technologies, Rockville, MD 20850, USA) and detected by chemiluminescence using the Chemidoc device (Bio-Rad Laboratories, USA). […] GADPH protein levels were analyzed by Western blotting using a specific rabbit monoclonal primary antibody that specifically recognizes this protein (ARC0205, catalog number MA535235, Thermo Scientific, Waltham, MA, USA) and secondary antibody anti-rabbit HRP (TA130023, OriGene Technologies, Rockville, MD 20850, USA), also in this case detected by chemiluminescence with the Chemidoc instrument (Bio-Rad Laboratories, USA).
structure (smiles),measurement,setting,value
Nc1ccc(Oc2ccc3oc(-c4cccc(Oc5ccccc5)c4)cc(=O)c3c2)cc1 [APF-1],effect on cell cycle profile,HDF cells,not affected
same,early apoptotic (Annexin V+PI−) cells,"H1975 cells [1]; H1975, 1.5 µM, 24 h",16%
same,late apoptotic (Annexin V+PI+) cells,"H1975 cells [1]; H1975, 1.5 µM, 24 h",11%
same,increase of early apoptosis compared to untreated cells,"H1975 cells [1]; H1975, 3 µM, 24 h",2.6 fold
same,increase of late apoptosis compared to untreated cells,"H1975 cells [1]; H1975, 3 µM, 24 h",6.5 fold
same,viability at 1.5 µM,"H1975 cells [1]; Homo sapiens, NCI-H1975, 24 h, H1975, 1.5 µM, 24 h, read-out: live/viable (Annexin V−PI−) cells",70.9%
same,viability at 3 µM,"H1975 cells [1]; Homo sapiens, NCI-H1975, 24 h, H1975, 3 µM, 24 h, read-out: live/viable (Annexin V−PI−) cells",46%
same,induction of apoptosis (sum of early and late apoptosis) with respect to untreated cells,"H1975 cells [1]; cancer cells (H1975), Figure 3D",about 4 times
same,IC50,A549 NSCLC cells,4.2 ± 0.4 µM
same,IC50,A549 NSCLC cells; Homo sapiens,4 µM
same,SI (Selectivity Index),A549 NSCLC cells; IC50 HDF / IC50 A549,16
same,SI increase compared with doxorubicin,H1975 NSCLC cells; H1975,~ 4.5 fold
same,IC50,H1975 NSCLC cells,2.3 ± 0.2 µM
same,IC50,"H1975 NSCLC cells; Homo sapiens, NCI-H1975, 72 h",2 µM
same,cells in G0/G1 phase,H1975 cells [2],24%
same,cells in G2/M phase,H1975 cells [2],70%
same,cells in S phase,H1975 cells [2],5.6%
same,increase in G2/M phase population compared to untreated cells,H1975 cells [2],2 fold
same,increase in p21 level with respect to untreated cells,"[3]; H1975, 1.5 µM",3 fold
same,increase in p21 level with respect to untreated cells,"[3]; H1975, 3 µM",3 fold
